Laboratory results published in patent US9938222B2 (BRISTOL-MYERS SQUIBB COMPANY, priority 2014, dated 2018).

Tested on: C57BL/6 mice
Test: Acute Oral Glucose Tolerance Test
Type: in vivo
Conditions: dosed at 30 mg/kg orally 60 min before glucose challenge (2 g/kg), AUC t=0-120 min compared to vehicle
Procedure: In Vivo GPR120 Assays 1) Acute Oral Glucose Tolerance Test
C57BL/6 mice were housed individually and fed a standard rodent chow diet. At approximately 11 weeks age, after a 5 h fast, these mice were orally treated with vehicle or test compounds 60 min before a glucose challenge (2 g/kg). Blood glucose levels were determined from tail bleeds taken at −60, 0, 15, 30, 60 and 120 min after the glucose challenge. […] This AUC for compound treatment is compared to vehicle treatment.

O=C(O)[C@H]1C[C@@H]1COc1ccc(-c2cc(Oc3cccc(F)c3)cc(F)c2F)cc1F (single isomer, unassigned) [Example 105] was tested, and the “reduced glucose AUC” value was 55%.

Molecular target: human GPR120 (Homo sapiens (Human), UniProt Q5NUL3)
Sequence (Q5NUL3 whole entry): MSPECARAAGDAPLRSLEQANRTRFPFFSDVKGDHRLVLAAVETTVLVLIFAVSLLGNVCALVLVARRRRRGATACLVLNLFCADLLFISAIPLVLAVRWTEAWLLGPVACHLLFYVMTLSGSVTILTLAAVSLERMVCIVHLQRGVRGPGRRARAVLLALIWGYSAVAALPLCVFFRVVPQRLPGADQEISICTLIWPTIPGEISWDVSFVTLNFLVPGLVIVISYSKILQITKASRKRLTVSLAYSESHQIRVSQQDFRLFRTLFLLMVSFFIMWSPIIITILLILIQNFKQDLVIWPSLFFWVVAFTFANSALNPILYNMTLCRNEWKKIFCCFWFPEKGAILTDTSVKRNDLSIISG
Test: GPR120 pERK AlphaScreen SureFire Assay (human GPR120 pERK assay)
Type: cell-based
Conditions: CHO cells stably transfected with short form of human GPR120
Outline: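 CHOA12 cells stably expressing short-form human GPR120, serum-starved 2 h, then stimulated 7 min at 37° C with compound (33.33 μM to 0.56 nM, 11-point). Phospho-ERK1/2 read by AlphaScreen SureFire in lysates. Activation scaled between DMSO and 50 μM linolenic acid; EC50 from a 4-parameter logistic fit.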

O=C(O)[C@H]1C[C@@H]1COc1ccc(-c2cc(Oc3cccc(F)c3)cc(F)c2F)cc1F (single isomer, unassigned) [Example 105] and O=C(O)[C@@H]1C[C@H]1COc1ccc(-c2cc(Oc3cccc(F)c3)cnc2Cl)cc1 (racemic) [Example 111, Trans-2-((4-(2-chloro-5-(3-fluorophenoxy)pyridin-3-yl)phenoxy)methyl) cyclopropanecarboxylic acid] are within 1.5-fold of each other in EC50: 140 nM for the first, 190 nM for the second.

First: O=C(O)[C@@H]1C[C@H]1COc1ccc(-c2cc(C(F)(F)F)ccc2Cl)cc1 (racemic) [Example 121, Trans-2-(((2′-chloro-5′-(trifluoromethyl)-[1,1′-biphenyl]-4-yl)oxy)methyl)cyclopropanecarboxylic acid]
Second: CC(C)Oc1cc(-c2ccc(OC[C@@H]3C[C@H]3C(=O)O)cc2)cc(C(F)(F)F)c1 (racemic) [Example 47, Trans-2-(((3′-isopropoxy-5′-(trifluoromethyl)-[1,1′-biphenyl]-4-yl)oxy)methyl)cyclopropanecarboxylic acid]
The EC50 of the first is 1.6-fold lower: 1250 nM for the first, 2040 nM for the second. The first is the more potent here.

CC1(C)Cc2cc(Cl)cc(-c3ccc(CC[C@@H]4C[C@H]4C(=O)O)cc3)c2O1 (single isomer, unassigned) [Example 26] and CC(C)Oc1ccc(Cl)c(-c2ccc(CC[C@@H]3C[C@H]3C(=O)O)cc2)c1 (relative stereo) [Example 133, Trans-2-(2-(2′-chloro-5′-isopropoxy-[1,1′-biphenyl]-4-yl)ethyl) cyclopropanecarboxylic acid] are within 1.5-fold of each other in EC50: 1720 nM for the first, 1860 nM for the second.

Going from CC(C)Oc1ccc(F)c(-c2ccc(CC[C@@H]3C[C@H]3C(=O)O)cc2)c1 (single isomer, unassigned) [Example 31] to CC(C)Oc1ccc(F)c(-c2ccc(CC[C@H]3C[C@H]3C(=O)O)cc2)c1 (single isomer, unassigned) [Example 16], the EC50 falls from 640 nM to 420 nM (1.5-fold).

Compared with CCSc1cccc(-c2ccc(CC[C@@H]3C[C@H]3C(=O)O)cc2)c1 (racemic) [Example 38, Trans-2-(2-(3′-(ethylthio)-[1,1′-biphenyl]-4-yl)ethyl)cyclopropanecarboxylic acid], CC(C)Oc1cccc(-c2ccc(CC[C@@H]3C[C@H]3C(=O)O)cc2)c1 (racemic) [Example 131, Trans-2-(2-(3′-isopropoxy-[1,1′-biphenyl]-4-yl)ethyl) cyclopropanecarboxylic acid] is 3.5-fold lower in EC50: 3240 nM for the first, 920 nM for the second.
